# According to US20230089789A1, “INTESTINAL TRACT FUNCTION-IMPROVING AGENT” (CYCLOCHEM BIO CO., LTD., priority 2020, published 2023):
# What was measured:
# IgA = IgA measurement in cecal contents (Rat IgA ELISA Kit); assay type: in vivo, SD rats; details: 5.5% in NF diet, 8 weeks; for IgA amount of cecal contents: compared to the NF group (p<0.01), FIG. 2
# Method: (§1) Fifteen 3-week-old SD rats (Japan SLC, Inc.) were acclimatized to the facility for one week and then divided into three groups of NF group (No Fiber diet), α-CD group (5.5% α-CD-containing NF diet) and LS group (5.5% LS-containing NF diet), each including five rats, and each rat was kept in one cage. In this test, the experiment was conducted in accordance with the Guidelines for Animal Experimentation of Kobe Women's University (Kobe, Japan), and approved by the animal ethics committee of the Graduate School of Science of Health and Nutrition at Kobe Women's University. The breeding environment was at 23±3° C. with a humidity of 60±10%, and cycles of 12-hour light/12-hour dark were provided. The rats were allowed to freely take diets and water and bread for eight weeks with experimental diets.
# (§2) The diets were prepared in such a manner that the α-CD or LS content of dry experimental diet became 5.5%. After mixing each powder well, 100 ml of water was added, and thus mixed material was used as an experimental diet.
# (§3) The rats of each group were fasted overnight eight weeks after starting breeding and then dissected under isoflurane anesthesia, and the cecum were taken out.
# One hundred milligrams of cecal contents were measured and stirred after adding 1 ml of Elix water. After stirring, the resultant was centrifuged under the conditions of 10000 rpm for 30 min at 4° C., and the supernatant was used as a sample for IgA measurement. IgA amount of each sample was measured using Rat IgA ELISA Kit (Bethyl Laboratories, Inc.). Statistical analysis was conducted in the same manner as in 1) above.
# Caco-2 cells [1] = assay: Cytotoxicity of food emulsifiers alone (LDH activity); assay type: cell-based, human
# Method: (§4) Caco-2 cells were inoculated to a 96-well plate at 10000 cells/well and cultured for three days to confluency. The Caco-2 cells were washed with PBS and then treated with a food emulsifier SE (250 μg/mL HLB16P, 1000 μg/mL HLB11S or 500 μg/mL […]) or monolaurin (500 μg/mL) and α-CD for an hour, and the LDH activities of each were measured. The treatment amounts of α-CD were 1/10, 1, 1.5, 2, 5 and 10 times the weight ratios for each SE. For monolaurin, the treatment amounts of α-CD were 1/10, 1, 1.5, 2, 5, 10 and 15 times the weight ratios.
# For comparison, the LDH activities of Caco-2 cells which were treated with the SE (HLB16P (0-1000 μg/mL), HLB11S or HLB16S (each 0-2000 μg/mL)) or monolaurin (0-2500 μg/mL) alone for an hour were also measured.
# Caco-2 cells [2] = assay: Effect on cytotoxicity of food emulsifiers (LDH activity); assay type: cell-based, human; details: one hour
# Method: as §4
# [3] = pH analysis of cecal contents; assay type: in vivo, SD rats; details: 5.5% in NF diet, 8 weeks
# Method: as §1, with “diets. […]” for “diets.”
# (§5) A cut was made in the cecum taken out in 1 above, and the contents were squeezed out. The weights of the cecal contents were measured. […]
# (§6) The cecal contents which were thawed for the microflora analysis were mixed and homogenized, and the analysis of the microflora by the T-RFLP method, measurement of the SCFAs amounts and the pH analysis were entrusted (TechnoSuruga Laboratory Co., Ltd.). The total SCFAs amounts were calculated by adding up the amounts of lactic acid, succinic acid, acetic acid, propionic acid and butyric acid.
# Caco-2 cells [4] = assay: Transepithelial electrical resistance decrease by food emulsifier; assay type: cell-based, human; details: HLB16P 62.5 μg/mL and α-CD 0-2000 μg/mL, 120 minutes, FIG. 7A
# Method: Caco-2 cells were seeded to a Transwell insert at 0.4×10^6 cells/mL using Corning (registered trademark) BioCoat (trademark) intestinal epithelial cells (Caco-2) differentiation environment kit (Corning International K.K.), cultured for one day in a normal medium and cultured for three days in a differentiation medium. The Caco-2 cells were washed with PBS, then treated with HLB16P (62.5 μg/mL) and α-CD (0-2000 μg/mL) and incubated for 120 minutes. During the incubation, the transepithelial electrical resistance values were measured every 20 minutes by Millicell ERS-2 resistance measurement system (Nihon Millipore K.K.).
# In the same manner, the transepithelial electrical resistance values were measured after treatment with HLB16P (62.5 μg/mL) and α-CD (2000 μg/mL), each water-soluble dietary fiber or oligosaccharide (2000 μg/mL).
# [5] = tested on: putrefactive products (indole, p-cresol and phenol); assay: Putrefactive product measurement in cecal contents; assay type: in vivo, SD rats; details: 5.5% in NF diet, 8 weeks
# Method: as §1, §2, §3
# Analysis of the amounts of putrefactive products (indole, p-cresol and phenol) in cecal contents was entrusted (TechnoSuruga Laboratory Co., Ltd.).
# [6] = Measurement of SCFAs amounts in cecal contents; assay type: in vivo, SD rats; details: 5.5% in NF diet, 8 weeks
# Method: as §1, §2, §3
# A cut was made in the cecum taken out in 1 above, and the contents were squeezed out. The weights of the cecal contents were measured. Immediately after the weight measurement, the contents were frozen with liquid nitrogen and stored at −80° C.
# as §6
# [7] = tested on: cecal microflora (Lactobacillales); assay: Analysis of cecal microflora by the T-RFLP method; assay type: in vivo, SD rats; details: 5.5% in NF diet, 8 weeks; compared to the NF group or the LS group
# Method: as §1, with “diets. […]” for “diets.”
# as §5, §6
# mucin = assay: Mucin measurement in cecal contents (Fecal mucin Assay Kit); assay type: in vivo, SD rats; details: 5.5% in NF diet, 8 weeks, FIG. 1
# Method: as §1
# The diets were prepared in such a manner that the α-CD or LS content of dry experimental diet became 5.5%. After mixing each powder well, 100 ml of water was added, and thus mixed material was used as an experimental diet. […]
# The mucin amounts of the cecal contents were measured using Fecal mucin Assay Kit (Cosmo Bio Co., Ltd.), statistically analyzed by the Dunnett's test and the Student's t-test using Pharmaco Analyst I (Ver. 13.1.1; Three S Japan) and shown with the average values ±standard errors.
# Feces amount measurement = assay type: in vivo, SD rats; details: 5.5% in NF diet, feces of three days from the 45th day
# Method: as §1, §2
# A drainboard was placed on the floor of each breeding cage 44 days after starting the test, and the feces that fell under the drainboard were collected every day for three days in succession after the 45th day. The weight (wet weight) of the collected feces (for the three days) was measured, and then after drying under reduced pressure, the feces weight after drying (dry weight) was measured.
# [8] = HLB11S 1000 μg/mL, weight ratio, FIG. 5B
# [9] = HLB16P 250 μg/mL, weight ratio, FIG. 5A
# [10] = HLB16S 500 μg/mL, weight ratio, FIG. 5C
# [11] = compared to the LS group (p<0.01, Student's t-test)
# [12] = compared to the LS group (p<0.05)
compound,measurement,setting,value
"OC[C@H]1O[C@@H](O[C@H]2[C@H](O)[C@@H](O)[C@@H](O[C@]3(CO)O[C@H](CO)[C@@H](O)[C@@H]3O)O[C@@H]2CO)[C@H](O)[C@@H](O)[C@H]1O [LS, Lactosucrose, reference compound]",IgA amount of cecal contents,IgA,increased significantly
"CCCCCCCCCCCC(=O)OCC(O)CO (stereo not shown) [monolaurin, Monolaurin]",concentration at which cytotoxicity to the Caco-2 cells was observed,Caco-2 cells [1],≥ 156.25 µg/mL
same,concentration at which cytotoxicity to the Caco-2 cells was very high,Caco-2 cells [1],≥ 625 µg/mL
OC[C@H]1O[C@@H]2O[C@H]3[C@H](O)[C@@H](O)[C@@H](O[C@H]4[C@H](O)[C@@H](O)[C@@H](O[C@H]5[C@H](O)[C@@H](O)[C@@H](O[C@H]6[C@H](O)[C@@H](O)[C@@H](O[C@H]7[C@H](O)[C@@H](O)[C@@H](O[C@H]1[C@H](O)[C@H]2O)O[C@@H]7CO)O[C@@H]6CO)O[C@@H]5CO)O[C@@H]4CO)O[C@@H]3CO [α-CD],suppression of the cytotoxicity of the food emulsifier,"Caco-2 cells [2]; 1000 μg/mL HLB11S and 1000 μg/mL test substance, LDH activity, FIG. 6",exhibits such an effect
same,amount of α-CD with which cytotoxicity of HLB11S disappeared completely,Caco-2 cells [2]; [8],10 times the amount
same,amount of α-CD with which cytotoxicity of HLB11S was reduced significantly,Caco-2 cells [2]; [8],≥ 0.1 times the amount
same,amount of α-CD with which cytotoxicity of HLB16P disappeared completely,Caco-2 cells [2]; [9],10 times the amount
same,amount of α-CD with which cytotoxicity of HLB16P was reduced significantly,Caco-2 cells [2]; [9],≥ 1.5 times the amount
same,amount of α-CD with which cytotoxicity of HLB16S disappeared completely,Caco-2 cells [2]; [10],5 times the amount
same,amount of α-CD with which cytotoxicity of HLB16S was reduced significantly,Caco-2 cells [2]; [10],≥ 1.5 times the amount
same,amount of α-CD with which cytotoxicity of monolaurin disappeared completely,"Caco-2 cells [2]; monolaurin 500 μg/mL, weight ratio, FIG. 5D",≥ 10 times the amount
same,decrease in the cecal pH,[3]; compared to the LS group,remarkable
same,cecal pH,[3]; compared to the NF group,decreased significantly
same,suppression of the decrease in transepithelial electrical resistance value by the SE,Caco-2 cells [4],suppressed by the addition of α-CD in a concentration-dependent manner
same,production of the putrefactive products,[5]; [11],suppressed significantly
same,"amounts of the putrefactive products (indole, p-cresol and phenol) in cecal contents","[5]; compared to the NF group (p<0.01), FIG. 3",decreased significantly
same,increase in amount of acetic acid,[6]; compared to the LS group,remarkable
same,increase in amount of lactic acid,[6]; compared to the LS group,remarkable
same,increase in amount of n-butyric acid,[6]; compared to the LS group,remarkable
same,increase in amount of propionic acid,[6]; compared to the LS group,remarkable
same,increase in amount of succinic acid,[6]; compared to the LS group,remarkable
same,increase in total SCFAs amount,[6]; compared to the LS group,remarkable
same,amount of acetic acid in cecal contents,[6]; compared to the NF group,increased significantly
same,amount of lactic acid in cecal contents,[6]; compared to the NF group,increased significantly
same,amount of n-butyric acid in cecal contents,[6]; compared to the NF group,increased significantly
same,amount of propionic acid in cecal contents,[6]; compared to the NF group,increased significantly
same,amount of succinic acid in cecal contents,[6]; compared to the NF group,increased significantly
same,total SCFAs amount in cecal contents,[6]; compared to the NF group,increased significantly
same,proportion of the Lactobacillales in cecal microflora,[7],increased
same,mucin amount of cecal contents,mucin; [11],increased significantly
same,mucin amount of cecal contents,mucin; compared to the NF group (p<0.01),increased significantly
same,IgA amount of cecal contents,IgA,increased significantly
same,IgA-increasing effect,"IgA; α-CD group vs LS group, Student's t-test",comparable to that of LS
same,"feces amount, dry weight",Feces amount measurement; [12],increased significantly
same,"feces amount, wet weight",Feces amount measurement; [12],increased significantly
same,"feces amount, wet weight","Feces amount measurement; compared to the NF group (p<0.01), FIG. 4A",increased significantly
same,"feces amount, dry weight","Feces amount measurement; compared to the NF group (p<0.01), FIG. 4B",increased significantly
